# According to patent US20260191200A1, “COMPOUNDS AND COMPOSITIONS HAVING KNOCK-DOWN OR BLOOD FEED INHIBITION ACTIVITY AGAINST INSECT PESTS” (priority 2015, published 2026):
# How the values were obtained:
# Assay type in all cases: in vivo
# Anopheles stephensi [1] = assay: six well tissue culture plate deposit test, knockdown and mortality (Examples B1-B10); details: for 24 hr mort / 48 hr mort / KD: Table B4, alone or +Comp. (1.3); for KD: knockdown after 1 hour; for knockdown after 1 hour: Alone or Plus Compound (1.3)
# Description: The individual wells of six (6) well tissue culture plates were treated with 250 μl of an ethanol solution containing a test compound at a defined concentration. Once the deposits were dry, ten non-blood fed adult female Anopheles stephensi (between two to five day old) were added to each well, and sustained with a 10% sucrose solution in a cotton wool plug. Assessment of the knockdown after 1 hour (Tables B1-B10), and mortality after 24 and 48 hours (Tables B1-B4) was carried out.
# In case of multiple tests, the mean value is reported.
# Anopheles stephensi [2] = assay: WHOPES tunnel test with Hemotek membrane feeding device (B11-B14)
# Description: (§1) The following tests are based on the “WHOPES tunnel tests” (described at http://apps.who.int/iris/bitstream/10665/80270/1/9789241505277_eng.pdf)
# (§2) For examples B11-B15 the WHOPES tunnel test procedure was followed, except that live guniea pig baits were replaced with a Hemotek membrane feeding device, filled with blood and kept constant at 37° C. to mimic a human host.
# For examples B11-B14, the tunnel test was conducted with Anopheles stephensi;
# (§3) All tests were done under standardised laboratory controlled conditions (27° C.+2° C. under subdued light). The tunnel apparatus was a 60×30×30 cm glass case open at each end and the floor was lined with wet blue roll in order to maintain humidity. A 30×30×30 cm cage, covered in untreated netting, was placed at the release end. The test nets were cut to 25×25 cm squares and fitted into cardboard frames that allow a 20×20 cm area to be exposed. Nine holes, 1 cm in diameter, were made in the netting in the pattern specified in the WHOPES test. The frames were then fitted into the tunnel one third of the way down its length. A Hemotek device, filled with blood and kept constant at 37° C. to mimic a human host, was placed in the smaller area of the glass tunnel behind the test netting, and the end of the tunnel closed with a netting screen. A human sat at the Hemotek end of the tunnels for the duration of the test. At the start of the test, 100 female mosquitoes (non-blood fed, aged 5-8 days) were introduced into the cage. Mosquitoes are free to fly in the tunnel but have to make contact with the piece of netting and locate the holes in it before passing through to reach the bait.
# (§4) After 7 hours the mosquitoes were counted in each section of the tunnel. The number of mosquitoes knocked down and blood fed were recorded. Blood-feeding inhibition was assessed by comparing the proportion of blood-fed females (alive or dead) in treated and control tests. Four tunnels were run simultaneously each day, with one control containing untreated netting included with all runs. Three replicates were carried out per treatment. In case of multiple tests, the mean value is reported.
# [3] = test system: Anopheles gambiae, resistant strain AKRON; assay: WHOPES tunnel test with Hemotek membrane feeding device (B15); details: Table B15
# Description: as §1, §2
# For example B15, the tunnel test was conducted with Anopheles gambiae, resistant strain AKRON.
# (§5) The commercial standard Olyset nets used in certain examples are 2% w/w permethrin (approx. 1000 mg/m2, although not all of that is available on the surface at any one time, as a good proportion is in the polymer).
# All tests were done under standardised laboratory controlled conditions (27° C.+2° C. under subdued light). The tunnel apparatus was a 60×30×30 cm glass case open at each end and the floor was lined with wet blue roll in order to maintain humidity. A 30×30×30 cm cage, covered in untreated netting, was placed at the release end. The test nets were cut to 25×25 cm squares and fitted into cardboard frames that allow a 20×20 cm area to be exposed. […]
# After 7 hours the mosquitoes were counted in each section of the tunnel. The number of mosquitoes knocked down and blood fed were recorded. Blood-feeding inhibition was assessed by comparing the proportion of blood-fed females (alive or dead) in treated and control tests. […]
# Aedes aegypti = assay: twelve well tissue culture plate deposit test, knockdown (B23); details: 1 h, read-out: Aedes aegypti 1 hour % KD
# Description: (§6) The individual wells of a twelve (12) well tissue culture plates were treated with 100 μl of an ethanol solution containing a test compound at a defined concentration. Once the deposits were dry, five non-blood fed adult female Aedes aegypti or Anopheles stephensi (between two to five day old) were added to each well, and sustained with a 10% sucrose solution in a cotton wool plug. Assessment of the knockdown after 1 hour was carried out. Where multiple replicates of a treatment have been undertaken, the mean of those replicates is reported.
# Anopheles stephensi [4] = assay: as above; details: 1 h, read-out: Anopheles stephensi 1 hour % KD
# Description: as §6
# [5] = test system: non-blood fed adult female mosquitoes; assay: Bottle assay based on the CDC bottle assay (B21, B22); details: Table B21; rate not given
# Description: Based on the “CDC bottle assay” (described at http://www.cdc.gov/malaria/resources/pdf/fsp/ir_manual/ir_cdc_bioassay_en.pdf) 1 ml of ethanol containing a test compound at a defined concentration was added to a 250 ml glass bottle and the bottles were placed on a rolling table to coat the inner surfaces as the solvent evaporated. Once dry, twenty five non-blood fed adult female mosquitoes of the appropriate species and strains (each three day old) were aspirated from the stock culture and gently blown into the exposure bottles. The lid of the bottle was replaced and the bottle placed upright out of direct sun light under standard culture conditions, nominally 28° C. and 60-80% relative humidity.
# A stopwatch was started, and the assessment of the knock-down were made after 15 mins and 60 minutes. A mosquito was said to be knocked down if it was unable to stand, following the CDC definition. The bottles were replaced in an upright position when not being assessed.
# After one hour the mosquitoes were carefully removed from the bottle with an aspirator and placed in a recovery cup. The mosquitoes were supplied with a 10% sucrose solution on a cotton wool bung, and stored under culture conditions. Assessments of the mortality were made after 24 hours and 48 hours (B21).
# Each treatment was replicated a minimum of four times, with the mean knockdown or mortality recorded. In each study, a set of bottles was infested with a known insecticide susceptible strain of mosquitoes from the same genera as the resistant strains.
# Anopheles gambiae Kisumu [6] = assay: WHOPES tunnel test with live guinea pig baits, Burkina Faso (B16); details: Table B16; for Blood fed: number of mosquitoes
# Description: as §1
# (§7) For examples B16-B20, the WHOPES tunnel test procedure was followed with live guniea pig baits wherein B16-B18 were conduced in Burkina Faso with Anopheles gambiae Kisumu, Anopheles coluzzii VK7 lab strain and Anopheles gambiae s.l. VK field strain, respectively; and B19-B20 were conducted in Cote d′Ivoire with Anopheles gambiae Kisumu and Anopheles gambiae Tiassale field strain, respectively.
# as §5, §3, §4
# [7] = test system: Anopheles gambiae Tiassale field strain; assay: WHOPES tunnel test with live guinea pig baits, Cote d′Ivoire (B20); details: Table B20; for Blood fed: number of mosquitoes
# Description: as §1, §7, §5, §3, §4
# [8] = test system: Anopheles coluzzii VK7 lab strain; assay: WHOPES tunnel test with live guinea pig baits, Burkina Faso (B17); details: Table B17; for Blood fed: number of mosquitoes
# Description: as §1, §7, §5, §3, §4
# Anopheles gambiae Kisumu [9] = assay: WHOPES tunnel test with live guinea pig baits, Cote d′Ivoire (B19); details: Table B19; for Blood fed: number of mosquitoes
# Description: as §1, §7, §5, §3, §4
# [10] = test system: Anopheles gambiae s.l. VK field strain; assay: WHOPES tunnel test with live guinea pig baits, Burkina Faso (B18); details: Table B18; for Blood fed: number of mosquitoes
# Description: as §1, §7, §5, §3, §4
# [11] = Table B12, Deltamethrin 5 mg/m2
structure (smiles),measurement,setting,value
COC(=O)N(C(=O)N1CO[C@@]2(C(=O)OC)Cc3cc(Cl)ccc3C2=N1)c1ccc(OC(F)(F)F)cc1 [Indoxacarb],24 hr mort,Anopheles stephensi [1]; Rate 12.5 ppm,0.0
same,48 hr mort,Anopheles stephensi [1]; Rate 12.5 ppm,0.0
same,24 hr mort,Anopheles stephensi [1]; Rate 25 ppm,0.0
same,48 hr mort,Anopheles stephensi [1]; Rate 25 ppm,0.0
same,24 hr mort,Anopheles stephensi [1]; Rate 50 ppm,0.0
same,48 hr mort,Anopheles stephensi [1]; Rate 50 ppm,0.0
same,24 hr mort,Anopheles stephensi [1]; Rate 100 ppm,0.0
same,48 hr mort,Anopheles stephensi [1]; Rate 100 ppm,0.0
same,KD,Anopheles stephensi [1]; Rate 12.5 ppm,0.0
same,KD,Anopheles stephensi [1]; Rate 25 ppm,0.0
same,KD,Anopheles stephensi [1]; Rate 50 ppm,0.0
same,KD,Anopheles stephensi [1]; Rate 100 ppm,0.0
same,knockdown after 1 hour,"Anopheles stephensi [1]; Table B7, Rate 25 ppm",0
same,knockdown after 1 hour,"Anopheles stephensi [1]; Table B7, Rate 50 ppm",0
same,knockdown after 1 hour,"Anopheles stephensi [1]; Table B7, Rate 100 ppm",0
same,knockdown after 1 hour,"Anopheles stephensi [1]; Table B7, Rate 200 ppm",0
same,% 24 hour mortality,"Anopheles stephensi [2]; Table B14, Indoxacarb 20 mg/m2",7.6%
same,% Blood fed,[3]; Indoxacarb 200 mg/m2,4.4%
FC(F)(F)c1ccncc1-c1noc(-c2cccc(Cl)c2)n1 [Compound 1.1],pest or weed control at 0.2 ppm,Aedes aegypti; Rate 0.2 PPM,100%
same,pest or weed control at 2 ppm,Aedes aegypti; Rate 2 PPM,100%
same,pest or weed control at 20 ppm,Aedes aegypti; Rate 20 PPM,100%
same,pest or weed control at 200 ppm,Aedes aegypti; Rate 200 PPM,100%
same,pest or weed control at 0.2 ppm,Anopheles stephensi [4]; Rate 0.2 PPM,40%
same,pest or weed control at 2 ppm,Anopheles stephensi [4]; Rate 2 PPM,100%
same,pest or weed control at 20 ppm,Anopheles stephensi [4]; Rate 20 PPM,100%
same,pest or weed control at 200 ppm,Anopheles stephensi [4]; Rate 200 PPM,100%
N#CCNC(=O)c1cnccc1C(F)(F)F [Flonicamid],24 hour % mort,[5],0%
same,48 hour % mort,[5],0%
same,% 1 hour KD,[5],0%
CCN(CC)c1nc(C)cc(OP(=S)(OC)OC)n1 [pirimiphos-methyl],knockdown after 1 hour,"Anopheles stephensi [1]; Table B10, Rate 0.0625 ppm",0.0
same,knockdown after 1 hour,"Anopheles stephensi [1]; Table B10, Rate 0.125 ppm",0.0
CC1(C)[C@H](C(=O)O[C@H](C#N)c2cccc(Oc3ccccc3)c2)[C@@H]1C=C(Br)Br [Deltamethrin],% 1 hour KD,Anopheles stephensi [2]; [11],0%
same,% Blood fed,Anopheles stephensi [2]; [11],0%
NC(=O)c1cnccc1C(F)(F)F [Compound 1.3],% Blood fed,Anopheles gambiae Kisumu [6]; 50 mg/m2,1.5%
same,% Blood fed,Anopheles gambiae Kisumu [6]; 200 mg/m2,0.3%
same,Blood fed,Anopheles gambiae Kisumu [6]; 50 mg/m2,5
same,Blood fed,Anopheles gambiae Kisumu [6]; 200 mg/m2,1
same,% Blood fed,[7]; 50 mg/m2,24.5%
same,% Blood fed,[7]; 200 mg/m2,3.3%
same,Blood fed,[7]; 50 mg/m2,66
same,Blood fed,[7]; 200 mg/m2,10
same,% Blood fed,[8]; 50 mg/m2,3.3%
same,% Blood fed,[8]; 200 mg/m2,1.5%
same,Blood fed,[8]; 50 mg/m2,10
same,Blood fed,[8]; 200 mg/m2,6
same,% Blood fed,"Anopheles stephensi [2]; Table B11, treated net, Rate 10 mg/m2",3%
same,% Blood fed,[3]; Compound (1.3) 25 mg/m2,0.3%
same,% Blood fed,Anopheles gambiae Kisumu [9]; 50 mg/m2,25.0%
same,% Blood fed,Anopheles gambiae Kisumu [9]; 200 mg/m2,23.1%
same,Blood fed,Anopheles gambiae Kisumu [9]; 50 mg/m2,70
same,Blood fed,Anopheles gambiae Kisumu [9]; 200 mg/m2,74
same,% Blood fed,[10]; 50 mg/m2,1.3%
same,% Blood fed,[10]; 200 mg/m2,1.8%
same,Blood fed,[10]; 50 mg/m2,4
same,Blood fed,[10]; 200 mg/m2,6
